Results on 27 compounds are retold here after patent publication US9758485B2, “Compounds for controlling arthropods” (priority 2013, dated 2017).

Where two headings read alike, the source gives them in different places.

Series [1] in a line: logP determination by HPLC on a reversed-phase column (C18), EEC Directive 79/831 Annex V.A8. The class given is physicochemical. The settings on record: for logP^a): HPLC-MS method a), Table I-T3.
The next series concerns Boophilus microplus. The series can be described thus: Boophilus microplus - injection test. The class given is in vivo. The settings on record: application rate 20 μg/animal; injected into engorged adult female ticks; laying of fertile eggs, after 7 days. The protocol: Boophilus microplus—Injection Test
(§1) Solvent: dimethyl sulphoxide
To produce an appropriate active ingredient formulation, 10 mg of active ingredient are mixed with 0.5 ml of solvent and the concentrate is diluted with solvent to the desired concentration.
1 μl of the active ingredient solution is injected into the abdomen of 5 engorged adult female cattle ticks (Boophilus microplus). The animals are transferred into dishes and kept in a climate-controlled room.
Efficacy is assessed after 7 days by laying of fertile eggs. Eggs which are not visibly fertile are stored in a climate-controlled cabinet until the larvae hatch after about 42 days. An efficacy of 100% means that none of the ticks has laid any fertile eggs; 0% means that all the eggs are fertile.

In another series the test system is Ctenocephalides felis. The series is described as follows: Ctenocephalides felis - oral test. In kind it is in vivo. The settings on record: application rate 100 ppm in citrated cattle blood; adult fleas; kill after 2 days. The protocol: Ctenocephalides felis—Oral Test
as §1
For the purpose of producing an appropriate active ingredient formulation, 10 mg of active ingredient are mixed with 0.5 ml of dimethyl sulphoxide. Dilution with citrated cattle blood gives the desired concentration.
About 20 unfed adult cat fleas (Ctenocephalides felis) are placed into a chamber which is closed at the top and bottom with gauze. A metal cylinder whose bottom end is closed with parafilm is placed onto the chamber. The cylinder contains the blood/active ingredient preparation, which can be imbibed by the fleas through the parafilm membrane.
After 2 days, the kill in % is determined. 100% means that all of the fleas have been killed; 0% means that none of the fleas have been killed.

A further series has as its system Lucilia cuprina. The series can be described thus: Lucilia cuprina test. In kind it is in vivo. The settings on record: application rate 100 ppm, L1 larvae in minced horsemeat, kill after 2 days. As for the experimental part: as §1
(§2) To produce an appropriate active ingredient formulation, 10 mg of active ingredient are mixed with 0.5 ml of dimethyl sulphoxide, and the concentrate is diluted with water to the desired concentration.
About 20 L1 larvae of the Australian sheep blowfly (Lucilia cuprina) are transferred into a test vessel containing minced horsemeat and the active ingredient preparation of the desired concentration.
After 2 days, the kill in % is determined. 100% means that all the larvae have been killed; 0% means that none of the larvae have been killed.

A further series deals with Musca domestica. The series can be described thus: Musca domestica test. In kind it is in vivo. The settings on record: application rate 100 ppm; adult houseflies; kill after 2 days. The protocol: as §1, §2
Vessels containing a sponge treated with sugar solution and the active ingredient formulation of the desired concentration are populated with 10 adult houseflies (Musca domestica).
After 2 days, the kill in % is determined. 100% means that all of the flies have been killed; 0% means that none of the flies have been killed.

Where [2] appears, read: HPLC-MS, reversed-phase column (C18).

As for `CCc1cc(C(F)(C(F)(F)F)C(F)(F)F)cc(C)c1-n1cc(-c2cncc(C(=O)NC3(C#N)CC3)c2)cn1` [I-T3-76], in series [1], the “logP^a)” value is recorded as 3.4. The efficacy in the series on Boophilus microplus was found to be 100%; with Ctenocephalides felis it was 100%; in the series on Lucilia cuprina, 90%; with Musca domestica it was 90%.
As for `Cc1cc(C(F)(C(F)(F)F)C(F)(F)F)cc(C)c1-n1cc(-c2cc(C(=O)NC3(C#N)CC3)cc(C(F)(F)F)c2)cn1` [I-T3-18], the “logP^a)” value in series [1] turned out to be 4.7. Moreover, the efficacy with Boophilus microplus, in the series with Ctenocephalides felis and in the series on Lucilia cuprina was 100% in each case.
Consider `Cc1cc(C(F)(C(F)(F)F)C(F)(F)F)cc(C)c1-n1cc(-c2ncc(Cl)c(C(=O)NC3CC3)n2)cn1` [I-T3-121, 5-chloro-N-cyclopropyl-2-[1-[2,6-dimethyl-4-[1,2,2,2-tetrafluoro-1-(trifluoromethyl)ethyl]phenyl]pyrazol-4-yl]pyrimidine-4-carboxamide], for which the chromatographic logP in series [1] (reversed-phase HPLC column (C18), HPLC, reversed-phase C18, acetonitrile/water with formic acid, 55° C., read-out: logP) is 4.5; in series [1] (reversed-phase HPLC column (C18), HPLC-MS method a), reversed-phase column (C18); read-out: logP^a)), 4.5; in series [1] (reversed-phase HPLC column (C18), HPLC-MS, reversed-phase column (C18), read-out: log P), 4.5. Further, in the series on Lucilia cuprina (Lucilia cuprina, 48 h, read-out: efficacy), the pest or weed control at 100 ppm came to 80%.
With `CCc1cc(C(F)(C(F)(F)F)C(F)(F)F)cc(C)c1-n1cc(-c2cccc(C(=O)NC3CC3)c2F)cn1` [I-T3-70], the “logP^a)” value in series [1] worked out at 4.7. Besides, the efficacy with Boophilus microplus amounted to 100%; in the series with Ctenocephalides felis, 95%; with Lucilia cuprina, 100%.
On to `O=C(NCC(F)(F)F)c1cc(-c2cnn(-c3ccc(C(F)(C(F)(F)F)C(F)(F)F)cc3Cl)c2)ccc1Cl` [I-T3-32], for which the “logP^a)” value in series [1] stood at 4.7. Further, the efficacy in the series with Boophilus microplus, in the series with Ctenocephalides felis and with Lucilia cuprina was 100% in each case.
As to `CCc1cc(C(F)(C(F)(F)F)C(F)(F)F)cc(C)c1-n1cc(-c2ccc(Cl)c(C(=O)NC3CC3)c2F)cn1` [I-T3-68], the “logP^a)” value in series [1] is given as 4.8. The efficacy amounted to 100% with Boophilus microplus, 100% in the series on Ctenocephalides felis, 100% with Lucilia cuprina and 80% in the series on Musca domestica.
As to `CCc1cc(C(F)(C(F)(F)F)C(F)(F)F)cc(C)c1-n1cc(-c2ccc(Cl)c(C(=O)NCC(F)(F)F)c2)cn1` [I-T3-45], the “logP^a)” value in series [1] is given as 5.0. The efficacy was 100% in the series with Boophilus microplus, 95% with Ctenocephalides felis and 100% in the series on Lucilia cuprina.
`CCc1cc(C(F)(C(F)(F)F)C(F)(F)F)ccc1-n1cc(-c2cncc(C(=O)NC3(C#N)CC3)c2)cn1` [I-T3-78]: the “logP^a)” value in series [1] worked out at 3.8. Further, the efficacy with Boophilus microplus, in the series with Ctenocephalides felis and with Lucilia cuprina was 100% in each case.
Consider `CCc1cc(C(F)(C(F)(F)F)C(F)(F)F)cc(C)c1-n1cc(-c2cccc(C(=O)NC3(C#N)CC3)c2F)cn1` [I-T3-69], for which the “logP^a)” value in series [1] is 4.5. Besides, the efficacy is 100% in the series with Boophilus microplus, 100% in the series on Ctenocephalides felis and 95% in the series with Lucilia cuprina.
As for `O=C(NC1CC1)c1cc(-c2cnn(-c3ncc(C(F)(F)F)cc3Cl)c2)ccc1Cl` [I-T3-60], in series [1], the “logP^a)” value is reported as 3.2. Besides, the efficacy with Boophilus microplus is reported as 100%; in the series on Ctenocephalides felis, 90%; in the series on Lucilia cuprina, 90%.
As to `O=C(NC1CSC1)c1cc(-c2cnn(-c3ccc(C(F)(C(F)(F)F)C(F)(F)F)cc3OC(F)(F)F)c2)ccc1Cl` [I-T3-37], the “logP^a)” value in series [1] is on record as 4.9. Further, the efficacy turned out to be 100% with Boophilus microplus, 90% in the series with Ctenocephalides felis and 100% in the series with Lucilia cuprina.
Turning to `CCc1cc(C(F)(C(F)(F)F)C(F)(F)F)ccc1-n1cc(-c2ccc(Cl)c(C(=O)NCC(F)(F)F)c2)cn1` [I-T3-40], in series [1], the “logP^a)” value was 4.9. Besides, the efficacy in the series with Boophilus microplus, in the series on Ctenocephalides felis and in the series with Lucilia cuprina was 100% throughout.
As for `Cc1cc(C(F)(C(F)(F)F)C(F)(F)F)cc(C)c1-n1cc(-c2cccc(C(=O)NC3(C#N)CC3)c2F)cn1` [I-T3-10], the “logP^a)” value in series [1] is 4.2. In addition, the efficacy in the series on Boophilus microplus, with Ctenocephalides felis and in the series with Lucilia cuprina was 100% each time.
As for `Cc1cc(C(F)(C(F)(F)F)C(F)(F)F)cc(C)c1-n1cc(-c2cc(C(=O)NC3(C#N)CC3)c(F)cc2Cl)cn1` [I-T3-12], the “logP^a)” value in series [1] is on record as 4.7. Also, the efficacy in the series on Boophilus microplus is given as 100%; in the series with Ctenocephalides felis, 100%; in the series with Lucilia cuprina it was 80%.
Consider `CCc1cc(C(F)(F)C(F)(F)F)cc(C)c1-n1cc(-c2ccc(Cl)c(C(=O)NCC(F)(F)F)c2)cn1` [I-T3-82], for which the “logP^a)” value in series [1] was 4.0. Besides, the efficacy in the series with Boophilus microplus was found to be 100%; in the series on Ctenocephalides felis, 95%; with Lucilia cuprina it was 100%.
In the case of `Cc1cc(C(F)(C(F)(F)F)C(F)(F)F)cc(C)c1-n1cc(-c2ccc(Cl)c(C(=O)NCC(=O)NCC(F)(F)F)c2)cn1` [I-T3-6], the “logP^a)” value in series [1] amounted to 4.1. Further, the efficacy with Boophilus microplus and with Lucilia cuprina was 100% throughout.
`CCc1cc(C(F)(F)C(F)(F)F)cc(C)c1-n1cc(-c2ccc(Cl)c(C(=O)NC3CSC3)c2)cn1` [I-T3-83]: the “logP^a)” value in series [1] was 4.6. In addition, the efficacy in the series with Boophilus microplus came to 100%; in the series with Ctenocephalides felis, 95%; in the series on Lucilia cuprina, 100%.
`N#CC1(NC(=O)c2cc(-c3cnn(-c4c(F)cc(C(F)(F)F)cc4F)c3)ccc2Cl)CC1` [I-T3-49]: in series [1], the “logP^a)” value is recorded as 3.2. The efficacy in the series on Boophilus microplus, with Ctenocephalides felis and in the series on Lucilia cuprina was 100% in each case.
Turning to `Cc1cc(C(F)(C(F)(F)F)C(F)(F)F)cc(C)c1-n1cc(-c2cc(C(=O)NC3CC3)cc(C(F)(F)F)c2)cn1` [I-T3-15], the “logP^a)” value in series [1] was 4.9. Besides, the efficacy in the series on Boophilus microplus is 100%; with Ctenocephalides felis it was 90%; in the series on Lucilia cuprina it was 100%.
Regarding `N#CC1(NC(=O)c2cc(-c3cnn(-c4ncc(C(F)(F)F)cc4Cl)c3)ccc2Cl)CC1` [I-T3-59], in series [1], the “logP^a)” value was 3.1. Further, the efficacy in the series on Boophilus microplus, with Ctenocephalides felis and in the series on Lucilia cuprina was 100% in each case.
With `CCc1cc(C(F)(C(F)(F)F)C(F)(F)F)ccc1-n1cc(-c2cccc(C(=O)NC3CC3)c2F)cn1` [I-T3-75], the “logP^a)” value in series [1] was determined as 4.7. For the same compound, the efficacy with Boophilus microplus was 90%; with Lucilia cuprina, 80%.
In the case of `CCc1cc(C(F)(C(F)(F)F)C(F)(F)F)ccc1-n1cc(-c2ccc(Cl)c(C(=O)NC3CSC3)c2)cn1` [I-T3-41], the “logP^a)” value in series [1] came out at 4.9. The efficacy turned out to be 100% in the series on Boophilus microplus, 95% in the series with Ctenocephalides felis and 90% in the series with Lucilia cuprina.
Take `CCc1cc(C(F)(C(F)(F)F)C(F)(F)F)ccc1-n1cc(-c2cccc(C(=O)NC3(C#N)CC3)c2F)cn1` [I-T3-74]: in series [1], the “logP^a)” value stood at 4.5. For the same compound, the figures for the efficacy with Boophilus microplus and with Lucilia cuprina were 100% and 90%, respectively.
One may read the log P as the decadic logarithm of the partition coefficient of the neutral form, usually between octanol and water. On to `Cn1ccc(NC(=O)c2cc(-c3cnn(-c4c(Cl)cc(C(F)(F)F)cc4Cl)c3)cnc2Cl)n1` [I-T3-146], for which, in series [1] (setting [2]), the “log P” value was found to be 2.8. Moreover, the efficacy with Boophilus microplus came to 100%; in the series with Ctenocephalides felis it was 100%; in the series with Lucilia cuprina, 90%.
With `O=C(NCCC(F)(F)F)c1cc(-c2cnn(-c3ccc(C(F)(C(F)(F)F)C(F)(F)F)cc3Cl)c2)ccc1Cl` [I-T3-33], the “logP^a)” value in series [1] worked out at 4.7. Also, the efficacy in the series with Boophilus microplus, in the series on Ctenocephalides felis and with Lucilia cuprina was 100% throughout.
Take `Cc1cc(C(F)(C(F)(F)F)C(F)(F)F)cc(C)c1-n1cc(-c2cnc(C3CC3)c(C(=O)NC3CC3)c2)cn1` [I-T3-140]: in series [1] (setting [2]), the lipophilicity (log P) worked out at 4.2. In addition, the efficacy with Boophilus microplus, in the series with Ctenocephalides felis and in the series on Lucilia cuprina was 100% each time.
With `O=C(NCC(F)(F)F)c1cc(-c2cnn(-c3ccc(C(F)(C(F)(F)F)C(F)(F)F)cc3OC(F)(F)F)c2)ccc1Cl` [I-T3-36], the “logP^a)” value in series [1] is given as 5.0. In addition, the figures for the efficacy in the series on Boophilus microplus, in the series with Ctenocephalides felis and with Lucilia cuprina were 100%, 80% and 100%, respectively.
